According to paper PMC6016400 (Journal of medicinal chemistry, 2017):

Experiments:
hPTHR1 = molecular target: T1, hPTHR1 (Homo sapiens, UniProt Q03431); assay: cAMP induction; format: cell-based; settings: Table 1; ratio of cAMP EC50 values, hPTHR1, GP2.3 cells
T1 sequence (Q03431 27-593): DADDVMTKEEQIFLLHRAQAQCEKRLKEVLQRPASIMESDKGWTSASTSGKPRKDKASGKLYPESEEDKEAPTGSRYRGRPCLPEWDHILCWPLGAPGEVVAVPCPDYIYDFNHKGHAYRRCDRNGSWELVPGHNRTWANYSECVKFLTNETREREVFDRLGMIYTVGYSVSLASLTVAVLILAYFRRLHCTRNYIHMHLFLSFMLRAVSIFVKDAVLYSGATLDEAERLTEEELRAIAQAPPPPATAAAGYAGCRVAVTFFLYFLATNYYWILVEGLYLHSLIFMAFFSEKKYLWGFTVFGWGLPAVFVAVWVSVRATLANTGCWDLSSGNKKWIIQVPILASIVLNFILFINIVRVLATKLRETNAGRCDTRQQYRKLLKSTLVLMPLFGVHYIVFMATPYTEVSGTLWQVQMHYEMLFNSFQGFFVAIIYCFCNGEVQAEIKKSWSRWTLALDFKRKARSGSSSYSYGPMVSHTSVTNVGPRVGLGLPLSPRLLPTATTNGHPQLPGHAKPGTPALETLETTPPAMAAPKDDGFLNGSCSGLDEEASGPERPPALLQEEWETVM

[1] = system: R0 conformation of the human PTHR1; settings: cited from earlier work
CD1 mice = settings: subcutaneous injection; cited from earlier work

Derivative EC50/PTH(1-34) EC50 (hPTHR1): 4.2
Substance: M-PTH(1-34) [Peptide 27]
binding to the R0 state of PTHR1, rank in words, earlier studies [1]: binds even more tightly than does 1
duration of calcemic effect in mice, earlier studies (CD1 mice): long-lasting calcemic effect
